Source: patent US11129386B2, “Microbiocidal quinoline (thio)carboxamide derivatives” (SYNGENTA PARTICIPATIONS AG, priority 2017, dated 2021)

Legend:
[1] = test system: Botryotinia fuckeliana (Botrytis cinerea); assay: Botryotinia fuckeliana (Botrytis cinerea)/liquid culture (Gray mould); assay type: cell-based; settings: liquid culture, growth inhibition photometrically 3-4 days after application, compared to untreated control
[2] = test system: Glomerella lagenarium (Colletotrichum lagenarium); assay: Glomerella lagenarium (Colletotrichum lagenarium)/liquid culture (Anthracnose); assay type: cell-based; settings: Colletotrichum orbiculare, 72 h, liquid culture, growth inhibition photometrically 3-4 days after application, compared to untreated control
Fusarium culmorum = assay: microbe, parasite or virus in culture; assay type: cell-based; settings: read-out: control of Fusarium culmorum
[3] = test system: Magnaporthe grisea (Pyricularia oryzae); assay: microbe, parasite or virus in culture; assay type: cell-based; settings: read-out: control of Magnaporthe grisea

CC1(CC(C)(CC(F)(F)F)C(=O)Nc2cnc3c(F)cccc3c2)CC1 (centres unmarked) [Compound E1, 4,4,4-trifluoro-N-(8-fluoro-3-quinolyl)-2-methyl-2-[(1-methylcyclopropyl)methyl]butanamide]
≥ 80%: inhibition of growth at 20 ppm [1] | inhibition of growth at 20 ppm [2] | inhibition of growth at 20 ppm (Fusarium culmorum) | inhibition of growth at 20 ppm [3]
60 to 70 °C: melting point

C/C=C(\C)CC(C)(CC(C)C)C(=O)Nc1cnc2c(F)cccc2c1 (centres unmarked) [Compound E2]
≥ 80%: inhibition of growth at 20 ppm [1] | inhibition of growth at 20 ppm [2] | inhibition of growth at 20 ppm (Fusarium culmorum) | inhibition of growth at 20 ppm [3]
135 to 137 °C: melting point

CC(C)=C(C)CC(C)(CC(C)C)C(=O)Nc1cnc2c(F)cccc2c1 (centres unmarked) [Compound E3]
≥ 80%: inhibition of growth at 20 ppm [1] | inhibition of growth at 20 ppm [2] | inhibition of growth at 20 ppm (Fusarium culmorum) | inhibition of growth at 20 ppm [3]

CC(C)=C(F)CC(C)(CC(C)C)C(=O)Nc1cnc2ccccc2c1 (centres unmarked) [Compound E4]
≥ 80%: inhibition of growth at 20 ppm [1] | inhibition of growth at 20 ppm [2] | inhibition of growth at 20 ppm (Fusarium culmorum) | inhibition of growth at 20 ppm [3]

CC(C)CC(C)(CC1CC1)C(=O)Nc1cnc2c(F)cccc2c1 (centres unmarked) [Compound E5]
≥ 80%: inhibition of growth at 20 ppm [1] | inhibition of growth at 20 ppm [2] | inhibition of growth at 20 ppm (Fusarium culmorum) | inhibition of growth at 20 ppm [3]

CC(C)CC(C#N)(CC(C)C)C(=O)Nc1cnc2c(F)cccc2c1 [Compound E6]
≥ 80%: inhibition of growth at 20 ppm [1] | inhibition of growth at 20 ppm [2] | inhibition of growth at 20 ppm (Fusarium culmorum) | inhibition of growth at 20 ppm [3]

C=CCC(C)(CC(C)C)C(=O)Nc1cnc2c(F)cccc2c1 (centres unmarked) [Compound E7]
≥ 80%: inhibition of growth at 20 ppm [1] | inhibition of growth at 20 ppm [2] | inhibition of growth at 20 ppm (Fusarium culmorum) | inhibition of growth at 20 ppm [3]

C=C(C)CC(C)C(=O)Nc1cnc2c(F)cccc2c1 (centres unmarked) [Compound E9]
≥ 80%: inhibition of growth at 20 ppm [1] | inhibition of growth at 20 ppm [2] | inhibition of growth at 20 ppm (Fusarium culmorum)

CC(C)=C(F)CC(CC(C)C)C(=O)Nc1cnc2c(F)cccc2c1 (centres unmarked) [Compound E10]
103 to 105 °C: melting point
≥ 80%: inhibition of growth at 20 ppm [1] | inhibition of growth at 20 ppm [2] | inhibition of growth at 20 ppm (Fusarium culmorum) | inhibition of growth at 20 ppm [3]

CC(CC1CCCCC1)C(=O)Nc1cnc2c(F)cccc2c1 (centres unmarked) [Compound E11]
179 to 181 °C: melting point
≥ 80%: inhibition of growth at 20 ppm [1] | inhibition of growth at 20 ppm [2] | inhibition of growth at 20 ppm (Fusarium culmorum) | inhibition of growth at 20 ppm [3]

C=C(Cl)CC(C)(CC1CCCCC1)C(=O)Nc1cnc2c(F)cccc2c1 (centres unmarked) [Compound E12]
≥ 80%: inhibition of growth at 20 ppm [1] | inhibition of growth at 20 ppm [2] | inhibition of growth at 20 ppm (Fusarium culmorum) | inhibition of growth at 20 ppm [3]

Cc1c(NC(=O)C(C)CC(C)C)cnc2c(F)cccc12 (centres unmarked) [Compound E13]
≥ 80%: inhibition of growth at 20 ppm [1] | inhibition of growth at 20 ppm [2] | inhibition of growth at 20 ppm (Fusarium culmorum)

CC(CC(F)(F)F)C(=O)Nc1cnc2c(F)cccc2c1 (centres unmarked) [Compound E14]
≥ 80%: inhibition of growth at 20 ppm [1] | inhibition of growth at 20 ppm [2] | inhibition of growth at 20 ppm (Fusarium culmorum)
